Reference: patent publication US7291730B2, “Pyrimidine compounds and their use” (Sumitomo Chemical Company, Limited, priority 2000, dated 2007)

tested on: Western Flower Thrips (Frankliniella occidentalis); assay: Insecticidal test against western flower thrips, sprayed cucumber leaves (Test Example 3); assay type: in vivo; conditions: 500 ppm, sprayed 20 ml/cup onto cucumber, thirty larvae on cut first foliage leaves, after 7 days
Experimental: A formulation of a test compound obtained in Formulation Example 5 was diluted with water so that the active ingredient concentration came to 500 ppm to prepare a test spray solution. The seeds of cucumber were planted in polyethylene cups and grown until their first foliage leaves developed, and the above test spray solution was sprayed at the rate of 20 ml/cup onto these cucumber plants. After the chemical solution sprayed onto the cucumber plants was dried, the first foliage leaves were cut off and placed on a water-containing filter paper (70 mm in diameter) in a polyethylene cup (110 mm in diameter). Thirty larvae of western flower thrips (Frankliniella occidentalis) were set free in the polyethylene cup, and the lid was put on the polyethylene cup. After 7 days, the number of surviving insects was examined.

Structure (SMILES)	number of surviving insects
CC#CCOc1cc(OCC#CC(C)(C)C)ncn1 [(7)]	zero
CC#CCOc1cc(OCC#CCC)ncn1 [(6)]	zero
C#CCOc1cc(Oc2cccc(C(F)(F)F)c2)ncn1 [(17)]	zero
CC#CCOc1cc(-c2ccccc2F)ncn1 [(55)]	zero
CC#CCOc1cc(Oc2cc(F)ccc2F)ncn1 [(43)]	zero
CC#CCOc1cc(O[C@@H]2CCC[C@H]2C)ncn1 (relative stereo) [(169)]	zero
C#CCOc1cc(Oc2ccc(C(F)(F)F)cc2)ncn1 [(20)]	zero
CCC#CCOc1cc(OCC#CCC)ncn1 [(3)]	zero
C#CCOc1cc(Oc2c(F)cccc2F)ncn1 [(21)]	zero
C#CCOc1cc(OCC#CCC)ncn1 [(5)]	zero
CC#CCOc1cc(Cc2ccccc2F)ncn1 [(88)]	zero
CC#CCOc1cc(OC2CCCC(C)C2)ncn1 (centres unmarked) [(182)]	zero
C#CCOc1cc(Oc2ccccc2)ncn1 [(51)]	zero
C#CCOc1cc(OCC#CC)ncn1 [(2)]	zero
C#CCOc1cc(OCc2ccccc2)ncn1 [(13)]	zero
C#CCOc1cc(Oc2cccc(Cl)c2)ncn1 [(15)]	zero

Structure (SMILES)	number of surviving insects
CC#CCOc1cc(OCC#CC)ncn1 [(1)]	zero
CC#CCOc1cc(Oc2c(F)cc(F)cc2F)ncn1 [(45)]	zero
CC#CCOc1ncnc(Oc2c(F)cccc2F)c1F [(190)]	zero
C#CCOc1cc(-c2ccc(F)cc2)ncn1 [(58)]	zero
CC#CCOc1ncnc(Oc2ccccc2F)c1F [(183)]	zero
C#CCOc1cc(-c2ccccc2)nc(C)n1 [(77)]	zero
C#CC(C)Oc1cc(-c2ccccc2F)ncn1 (centres unmarked) [(150)]	zero
CC#CCOc1cc(-c2cccc(F)c2F)ncn1 [(83)]	zero
CC#CCOc1cc(Oc2ccc(F)cc2Cl)ncn1 [(16)]	zero
CC#CCOc1cc(Oc2ccccc2F)ncn1 [(63)]	zero
C#CCOc1cc(Oc2ccccc2Cl)ncn1 [(19)]	zero
C#CCOc1cc(Oc2cccc(C)c2)ncn1 [(29)]	zero
CC#CCOc1cc(-c2ccc(F)cc2)ncn1 [(59)]	zero
CC#CCOc1ncnc(Cc2ccccc2F)c1F [(191)]	zero
C#CCOc1cc(-c2cccc(F)c2F)ncn1 [(82)]	zero

tested on: not given; assay: not given; conditions: not given

melting point [°C]	Structure (SMILES)
91.9	C#CCOc1cc(Oc2cccc(Cl)c2Cl)ncn1 [present compound (26), 4-(2,3-dichlorophenoxy)-6-(2-propynyloxy)pyrimidine]
109.2	C#CCOc1cc(Oc2ccc(Cl)c(Cl)c2)ncn1 [present compound (23), 4-(3,4-dichlorophenoxy)-6-(2-propynyloxy)pyrimidine]
60.1	CC#CCOc1cc(Oc2cccc(F)c2)ncn1 [present compound (61), 4-(3-fluorophenoxy)-6-(2-butynyloxy)pyrimidine]
51.5	CC#CCOc1cc(Cc2cccc(F)c2)ncn1 [present compound (100), 4-(2-butynyloxy)-6-(3-fluorobenzyl)pyrimidine]
159.3	CC#CCOc1cc(Nc2ccccc2)ncn1 [present compound (53), 4-anilino-6-(2-butynyloxy)pyrimidine]
136.5	C#CCOc1cc(Oc2cc(Cl)cc(Cl)c2)ncn1 [present compound (24), 4-(3,5-dichlorophenoxy)-6-(2-propynyloxy)pyrimidine]
147.6	CC#CCOc1cc(Nc2cccc(F)c2F)ncn1 [present compound (73), 4-(N-(2,3-difluorophenyl)amino)-6-(2-butynyloxy)pyrimidine]
121.2	CC#CCOc1cc(Oc2cccc(C#N)c2)ncn1 [present compound (40), 4-(2-butynyloxy)-6-(3-cyanophenoxy)pyrimidine]
117.7	CC#CCOc1cc(Oc2ccc(Cl)cc2F)ncn1 [present compound (4), 4-(2-butynyloxy)-6-(4-chloro-2-fluorophenoxy)pyrimidine]
87.7	C#CCOc1cc(Oc2cc(Cl)ccc2Cl)ncn1 [present compound (25), 4-(2,5-dichlorophenoxy)-6-(2-propynyloxy)pyrimidine]
57.6	CC#CCOc1cc(N(C)c2ccccc2)ncn1 [present compound (93), 4-(N-methyl-N-phenylamino)-6-(2-butynyloxy)pyrimidine]
81.4	C#CCOc1cc(Oc2ccc(F)cc2)ncn1 [present compound (35), 4-(4-fluorophenoxy)-6-(2-propynyloxy)pyrimidine]
100.3	C#CCOc1cc(Oc2ccc(Cl)cc2)ncn1 [present compound (14), 4-(4-chlorophenoxy)-6-(2-propynyloxy)pyrimidine]
65.1	C#CCOc1cc(-c2ccccc2)ncn1 [present compound (37), 4-phenyl-6-(2-propynyloxy)pyrimidine]
79.8	CC#CCOc1cc(Oc2c(F)cccc2F)ncn1 [present compound (33), 4-(2-butynyloxy)-6-(2,6-difluorophenoxy)pyrimidine]
109.7	CC#CCOc1cc(Oc2ccc(F)c(F)c2)ncn1 [present compound (10), 4-(2-butynyloxy)-6-(3,4-difluorophenoxy)pyrimidine]
77.5	CC#CCOc1cc(N(C)c2cccc(F)c2F)ncn1 [present compound (66), 4-(N-methyl-N-(2,3-difluorophenyl)amino)-6-(2-butynyloxy)pyrimidine]
162	CC#CCOc1cc(Oc2ccc(C#N)cc2)ncn1 [present compound (41), 4-(2-butynyloxy)-6-(4-cyanophenoxy)pyrimidine]
132.1	CC#CCOc1cc(Oc2ccc([N+](=O)[O-])cc2F)ncn1 [present compound (65), 4-(2-fluoro-4-nitrophenoxy)-6-(2-butynyloxy)pyrimidine]
74	C#CCOc1cc(OCC#C)ncn1 [present compound (52), 4,6-bis(2-propynyloxy)pyrimidine]
106.7	C#CCOc1cc(Oc2ccc(Cl)cc2Cl)ncn1 [present compound (22), 4-(2,4-dichlorophenoxy)-6-(2-propynyloxy)pyrimidine]
115.8	CC#CCOc1cc(Oc2ccc(F)cc2)ncn1 [present compound (62), 4-(4-fluorophenoxy)-6-(2-butynyloxy)pyrimidine]
64.8	C#CCOc1cc(Oc2ccccc2C)ncn1 [present compound (27), 4-(2-methylphenoxy)-6-(2-propynyloxy)pyrimidine]
59.6	CC#CCOc1cc(-c2ccccc2)ncn1 [present compound (38), 4-(2-butynyloxy)-6-phenylpyrimidine]
84.9	CC#CCOc1cc(OCc2cccc(F)c2F)ncn1 [present compound (76), 4-(2,3-difluorobenzyloxy)-6-(2-butynyloxy)pyrimidine]
90.1	CC#CCOc1cc(Oc2ccc(F)c(C(F)(F)F)c2)ncn1 [present compound (48), 4-(2-butynyloxy)-6-(4-fluoro-3-trifluoromethylphenoxy)pyrimidine]
72	C#CCOc1cc(Oc2ccc(OC)cc2)ncn1 [present compound (31), 4-(4-methoxyphenoxy)-6-(2-propynyloxy)pyrimidine]
94	CC#CCOc1cc(Oc2cccc(C(C)=O)c2)ncn1 [present compound (71), 4-(2-butynyloxy)-6-(3-acetylphenoxy)pyrimidine]

Structure (SMILES)	melting point [°C]
C#CCOc1cc(Oc2ccccc2Cl)ncn1 [present compound (19), 4-(2-chlorophenoxy)-6-(2-propynyloxy)pyrimidine]	76.2
CC#CCOc1cc(-c2ccc(F)cc2F)ncn1 [present compound (44), 4-(2-butynyloxy)-6-(2,4-difluorophenyl)pyrimidine]	63.9
C#CCOc1cc(Oc2ccccc2)ncn1 [present compound (51), 4-phenoxy-6-(2-propynyloxy)pyrimidine]	71.1
CC#CCOc1cc(OCC#CCC)ncn1 [present compound (6), 4-(2-butynyloxy)-6-(2-pentynyloxy)pyrimidine]	67.4
CC#CCOc1cc(OCC#CC)ncn1 [present compound (1), 4,6-bis(2-butynyloxy)pyrimidine]	82.9
CC#CCOc1cc(Oc2c(F)cc(F)cc2F)ncn1 [present compound (45), 4-(2-butynyloxy)-6-(2,4,6-trifluorophenoxy)pyrimidine]	60.3
CC#CCOc1cc(Cc2c(F)cccc2F)ncn1 [present compound (80), 4-(2,6-difluorobenzyl)-6-(2-butynyloxy)pyrimidine]	57.6
C#CCOc1cc(Oc2cccc(Cl)c2)ncn1 [present compound (15), 4-(3-chlorophenoxy)-6-(2-propynyloxy)pyrimidine]	71.6
C#CCOc1cc(Oc2c(F)cccc2F)ncn1 [present compound (21), 4-(2,6-difluorophenoxy)-6-(2-propynyloxy)pyrimidine]	67.2
